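These data come from cells grown in 96-well plates and exposed to compound for 48 hours at five concentrations. Abbreviation: GI50, concentration required for 50% inhibition of growth.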 Activity calls are given as the source filed them. No stated cut-off is given here; in the data, active = GI50 up to about 1.1 µM and inactive = higher.
Legend:
Experiment in all cases: NCI tumour cell line growth inhibition, 48 h
[1] = system: NCI-H226
[2] = system: OVCAR-5
[3] = system: KM12
[4] = system: OVCAR-4
[5] = system: SK-OV-3
[6] = system: TK-10
[7] = system: HCT-116
[8] = system: SK-MEL-28
[9] = system: UACC-62
[10] = system: SF-295
[11] = system: NCI-H23
[12] = system: MDA-N
[13] = system: EKVX
[14] = system: IGROV-1
[15] = system: CCRF-CEM
[16] = system: NCI-H460
[17] = system: UACC-257
[18] = system: LOX IMVI
[19] = system: NCI-H522
[20] = system: SR

| Compound | GI50 [1] | GI50 [2] | GI50 [3] | GI50 [4] | GI50 [5] | GI50 [6] | GI50 [7] | GI50 [8] | GI50 [9] | GI50 [10] | GI50 [11] | GI50 [12] | GI50 [13] | GI50 [14] | GI50 [15] | GI50 [16] | GI50 [17] | GI50 [18] | GI50 [19] | GI50 [20] |
| --- | --- | --- | --- | --- | --- | --- | --- | --- | --- | --- | --- | --- | --- | --- | --- | --- | --- | --- | --- | --- |
| CN(C(=S)Cc1ccc(Cl)c(Cl)c1)C1CCCC[C@@H]1N1CCCC1 (some centres not stated) | 46.6 µM (inactive) | 59.8 µM (inactive) | 44.6 µM (inactive) | 84.9 µM (inactive) | 58.7 µM (inactive) | 27.9 µM (inactive) | 48.1 µM (inactive) | 16.7 µM (inactive) | 17.5 µM (inactive) | 17.1 µM (inactive) | 44.2 µM (inactive) | 17.8 µM (inactive) | > 100 µM (inactive) | < 0.01 µM (active) | – | – | – | – | – | – |
| NNC(=O)C1CCC(=O)N1S(=O)(=O)c1ccccc1 (configuration not stated) | > 100 µM (inactive) | > 100 µM (inactive) | > 100 µM (inactive) | > 100 µM (inactive) | > 100 µM (inactive) | > 100 µM (inactive) | > 100 µM (inactive) | > 100 µM (inactive) | > 100 µM (inactive) | > 100 µM (inactive) | > 100 µM (inactive) | – | > 100 µM (inactive) | > 100 µM (inactive) | > 100 µM (inactive) | > 100 µM (inactive) | > 100 µM (inactive) | > 100 µM (inactive) | > 100 µM (inactive) | > 100 µM (inactive) |
| CC(C)CN(CC#N)CC(C)C | > 100 µM (inactive) | > 100 µM (inactive) | > 100 µM (inactive) | > 100 µM (inactive) | > 100 µM (inactive) | > 100 µM (inactive) | > 100 µM (inactive) | > 100 µM (inactive) | > 100 µM (inactive) | > 100 µM (inactive) | > 100 µM (inactive) | > 100 µM (inactive) | > 100 µM (inactive) | > 100 µM (inactive) | – | > 100 µM (inactive) | > 100 µM (inactive) | > 100 µM (inactive) | > 100 µM (inactive) | – |
| C/C(=N\c1ccc(Cl)cc1)c1ccncc1 | > 100 µM (inactive) | > 100 µM (inactive) | > 100 µM (inactive) | > 100 µM (inactive) | – | – | > 100 µM (inactive) | 5.14 µM (inactive) | – | > 100 µM (inactive) | 67.8 µM (inactive) | > 100 µM (inactive) | 27.9 µM (inactive) | – | 1.22 µM (inactive) | > 100 µM (inactive) | 22.6 µM (inactive) | > 100 µM (inactive) | > 100 µM (inactive) | – |
| CSC1=C(C#N)C(=O)N(c2ccc(C)cc2)C(=S)C1C#N (configuration not stated) | > 100 µM (inactive) | > 100 µM (inactive) | > 100 µM (inactive) | > 100 µM (inactive) | > 100 µM (inactive) | > 100 µM (inactive) | > 100 µM (inactive) | > 100 µM (inactive) | > 100 µM (inactive) | > 100 µM (inactive) | – | > 100 µM (inactive) | > 100 µM (inactive) | > 100 µM (inactive) | > 100 µM (inactive) | > 100 µM (inactive) | > 100 µM (inactive) | > 100 µM (inactive) | > 100 µM (inactive) | – |
| Nc1ncnc2c1ccn2CC#CCO | – | > 100 µM (inactive) | > 100 µM (inactive) | > 100 µM (inactive) | > 100 µM (inactive) | > 100 µM (inactive) | > 100 µM (inactive) | > 100 µM (inactive) | > 100 µM (inactive) | > 100 µM (inactive) | > 100 µM (inactive) | > 100 µM (inactive) | > 100 µM (inactive) | > 100 µM (inactive) | > 100 µM (inactive) | > 100 µM (inactive) | > 100 µM (inactive) | > 100 µM (inactive) | > 100 µM (inactive) | – |

Source: ChEMBL document CHEMBL1201862, “PubChem BioAssay data set” (2004)
